In US6673902B2, “Cyclin D binding factor, and uses thereof” (St. Jude Children's Research Hospital, priority 1996, dated 2004):

Experiments:
D-type cyclins = assay: Co-expression with D-type cyclins in Sf9 cells and co-precipitation; type: binding, mouse
Method: BamHI linkers are added to an XbaI-EcoRV cDNA fragment containing the entire DMP1 coding sequence, and the fragment is inserted into the BamHI site of the pAcYM1 baculovirus vector (37). Production of virus and infection of Spodoptera frugiperda (Sf9) cells are performed as previously described (23). For preparation of radiolabeled cell lysates, cells infected with the indicated recombinant viruses encoding DMP1, CDKs, and/or cyclins are metabolically labeled 40 hours post-infection for 8 additional hours with 50 uCi/ml of [^35S]methionine (1000 Ci/mmol; ICN, Irvine Calif.) in methionine-free medium or for 4 additional hours with 250 uCi/ml of carrier-free ^32P-orthophosphate (9000 Ci/mmol, Amersham) in phosphate-free medium. Cells suspended in 0.25 ml Kinase buffer containing protease and phosphatase inhibitors [2.5 mM EGTA, 0.1 mM phenylmethyl sulfonylfluoride (PMSF), 2% aprotinin, 1 mM β-glycerophosphate, 0.1 mM Na3VO4, and 0.1 mM NaF] are lysed by repeated freezing and thawing and clarified by centrifuigation. […]
We next co-expressed full length DMP1 together with D-type cyclins under baculovirus vector control in insect Sf9 cells. […] Electrophoretic separation of unfractionated metabolically labeled lysates from infected cells enabled direct autoradiographic visualization and relative quantitation of the recombinant mouse proteins (FIG. 3A). […]

wild-type MEFs = assay: BrdU incorporation / cell cycle arrest in wild-type MEFs; type: cell-based, mouse; conditions: retroviral infection
Method: BrdU incorporation and immunofluorescence. Wild-type or ARF-null MEFs (4×10^4 cells) were seeded on gelatin-coated coverslips 16 hours before virus infection. Cells were infected three times with empty vector, or vectors expressing murine DMP1, human c-Myc, human E2F-1, or human Ets1. Cells were labeled 36 hours after virus infection with bromodeoxyuridine (BrdU, Sigma) for 14 hours in complete medium. For pulse labeling, MEFs were treated with 2 μM4-HT for 36 hours and labeled with BrdU for three hours at different intervals throughout the inductive phase. Cells were fixed in ice-cold methanol-acetone (1:1) for 10 min at −20° C. and then were stained with affinity-purified antibodies to DMP1 (AF) [Hirai and Sherr, Mol. Cell. […]
Based on the above observations, it was determined as to whether introduction of DMP1 would induce synthesis of the endogenous ARF protein in normal diploid fibroblast strains. […] Although the blot was normalized for protein input, the levels of p19^ARF induced by DMP1 were calculated to be 2-fold higher than those induced by Myc, because fewer cells were productively infected with the DMP1 virus in this experiment (see FIG. 15A).

DMP1: murine cyclin D-associated myb-like transcription factor, 761 amino acids, SEQ ID NO:1
DMP1 molecules forming stable complexes with D-type cyclins (D-type cyclins; coexpressed in Sf9 cells): ≤ 15%
cyclin stably bound (D-type cyclins; coinfected Sf9 cells, approximately equivalent levels of protein and cyclin D2 or cyclin D3): 5-15%
cell cycle arrest (wild-type MEFs): underwent cell cycle arrest
